Measured values taken from paper PMC3985417 (Journal of Medicinal Chemistry, 2014).

Experiment: in vitro
Conditions: human, HEK293 cell homogenate

CN(C)CCCN1c2ccccc2CCc2ccccc21 [Imipramine] showed a fraction unbound at 4 h of 0.59 ± 0.013.
